Source: paper PMC7582705, “Structure-Based Discovery of Novel Chemical Classes of Autotaxin Inhibitors” (International Journal of Molecular Sciences, 2020)

Key:
Solubility (Table S1) = conditions: YES/NO
ATX [1] = molecular target: T1, ATX (Homo sapiens, UniProt Q13822); assay: Amplex Red Lyso-phospholipase D assay, human ATX; format: biochemical; parameters: purchased Sino Biological; conditions: for inhibition at 30 µM: Table S2, at 30uM, read-out: %inhibition at 30uM
Experimental: All compounds proposed were assessed for their ATX inhibitory activity in vitro using the Amplex Red assay. The Amplex Red Lyso-phospholipase D assay is a fluorometry-based assay providing a sensitive method for measuring Lyso-phospholipase D (ATX) activity in vitro. In this enzyme-coupled assay, ATX activity is monitored indirectly using 10-acetyl-3,7-dihydrophenoxazine (Amplex Red reagent), a sensitive fluorogenic probe for H2O2. ATX initially cleaves the Lysophosphatidylcholine (LPC) substrate to yield choline and Lysophosphatidic acid (LPA), while choline gets subsequently oxidized by choline oxidase to betaine and H2O2. Lastly, H2O2, in the presence of horseradish peroxidase (HRP), reacts with Amplex Red reagent in a 1:1 stoichiometry to generate the highly fluorescent product resorufin.
The inhibition assay was performed as previously described with some modifications in order to accommodate the newly-discovered lag phase in ATX kinetics. To this end, and in order to provide adequate time to the hydrolysis of LPC by ATX, we added a 30min incubation period between ATX, inhibitors and LPC. Briefly, 2 μL of different concentrations of inhibitors diluted in DMSO (Sigma-Aldrich, St. Louis, MO, USA) were incubated with 50 µL of ATX 8 nM (human or mouse ATX from Sino Biological), and 48 µL reaction buffer (50 mM Tris-Cl pH 8.0 from Thermo Fisher Scientific, Waltham, MA, USA and 5 mM CaCl2 from Honeywell-Fluka, Charlotte, NC, USA) in a black 96-well microplate for 15 min at 37 °C. Thence, another 50 µL of reaction buffer with 200 μM LPC substrate 16:0 (Avanti Polar Lipids Inc, Alabaster, AL, USA) ([…]) was added to the reaction mixture and incubated for 30 min at 37 °C in order for ATX to convert LPC to LPA and choline. Finally, 50 µL of working solution containing 200 μM Amplex Red (Invitrogen, Carlsbad, CA, USA), 4 U/mL HRP (Sigma-Aldrich, St. Louis, MO, USA), 0.4 U/mL choline oxidase (Sigma-Aldrich, St. Louis, MO, USA) in 50 mM Tris-HCl pH 8.0 and 5 mM CaCl2 was added to measure the produced choline. The reaction was monitored at 37 °C in a fluorescence plate reader using excitation at 530 nm and reading at 590 nm, every 5 min for 30 min. The velocity of the reaction and the remaining activity of ATX were calculated at the linear phase of the reaction and dose-response inhibition graphs were plotted with GraphPad Software (GraphPad Software, San Diego, CA, USA). […] In order to evaluate a possible effect of the compounds on the second (choline oxidase) and third (HRP) enzymes of the Amplex Red assay, we also performed the assay in the absence of ATX but in the presence of the compounds. Instead of ATX, we added choline chloride at a final concentration of 2 µM so as the second and third steps of the assay could proceed normally.

ATX [2] = molecular target: T1, ATX; assay: IC50 Eleanna (Table S2, method not described); format: biochemical; conditions: Table S2; read-out: IC50 Eleanna
[3] = recombinant human ATX 2 nM, LPC 16:0 substrate, Amplex Red, read-out: IC50 hATX
[4] = in vitro IC50 (Sino hATX 2nM), Table S2, Sino hATX 2nM

Compound	Solubility (Solubility (Table S1))	IC50 (ATX [1]; [3])	IC50 (ATX [1]; [4])	IC50 (ATX [2])	other results
Cc1cc(OC(=O)c2c(-c3ccccc3)noc2C)c2cc(F)ccc2n1 [BTB01297, (6-fluoro-2-methylquinolin-4-yl) 5-methyl-3-phenyl-1,2-oxazole-4-carboxylate]	YES	> 100 µM			
C(=C1c2ccccc2-c2ccccc21)C(C=C1c2ccccc2-c2ccccc21)c1ccccc1 [BTB11132, 9-[3-(9H-fluoren-9-yliden)-2-phenylpropylidene]-9H-fluorene]	YES	> 100 µM			
N#Cc1ccc(-c2c(NC(=O)NS(=O)(=O)c3ccccc3Cl)oc(-c3ccco3)c2C#N)cc1 [CD09529, 2-[({[(2-chlorophenyl)sulphonyl]amino}carbonyl)amino]-4-cyano-3-(4-cyanophenyl)-5-(2-furyl)furan]	YES	> 100 µM			
O=C(c1ccc(Sc2ccccc2)c([N+](=O)[O-])c1)N(Cc1ccc2c(c1)OCO2)c1ccc(F)cc1 [DSHS00944, N-(1,,3-benzodioxol-5-ylmethyl)-N-(4-fluorophenyl)-3-nitro-4-,phenylsulfanylbenzamide]	YES	> 100 µM			
CCc1nc2c(C)cc(N3CCN(CC(=O)N4CC(O)C4)CC3)cn2c1N(C)c1nc(-c2ccc(F)cc2)c(C#N)s1 [GLPG1690, 2-[[2-ethyl-6-[4-[2-(3-hydroxyazetidin-1-yl)-2-oxoethyl]piperazin-1-yl]-8-methylimidazo[1,2-a]pyridin-3-yl]-methylamino]-4-(4-fluorophenyl)-1,3-thiazole-5-carbonitrile, reference compound]	YES				
O=C1S/C(=C\c2ccc(OCc3ccc(B(O)O)cc3)cc2)C(=O)N1Cc1ccc(F)cc1 [HA155, [4-[[4-[(Z)-[3-[(4-fluorophenyl)methyl]-2,4-dioxo-1,3-thiazolidin-5-ylidene]methyl]phenoxy]methyl]phenyl]boronic acid, reference compound]	YES				
O=c1[nH]nc(-c2ccc(F)cc2)cc1Cc1cn(Cc2ccccc2)c2ccc([N+](=O)[O-])cc12 [HTS01403, 4-[(1-benzyl-5-nitro-1H-indol-3-yl)methyl]-6-(4-fluorophenyl)pyridazin-3(2H)-one]	YES	> 100 µM			
O=C(CSc1nc2cc(Cl)ccc2o1)Nc1cc(C(F)(F)F)cc(C(F)(F)F)c1 [HTS01561, N-[3,5-bis(trifluoromethyl)phenyl]-2-[(5-chloro-1,3-benzoxazol-2-yl)thio]acetamide]	YES	> 100 µM			
O=S(=O)(Nc1cc(C(F)(F)F)ccc1N1CCc2ccccc2C1)c1cccc2nonc12 [HTS01790, N-[2-(3,4-dihydro-1H-isoquinolin-2-yl)-5-(trifluoromethyl)phenyl]-2,1,,3-benzoxadiazole-7-sulfonamide]	YES	> 100 µM			
CC(C)(C)c1ccc(-c2nnc(SCC(=O)c3ccccc3)n2-c2ccc3c(c2)OCO3)cc1 [HTS02043, 2-[[4-(1,3-benzodioxol-5-yl)-5-(4-tert-butylphenyl)-1,2,4-triazol-3-yl]sulfanyl]-1-phenylethanone]	YES	> 100 µM			
Cc1ccc(S(=O)(=O)CCSc2n[nH]c(=O)n2-c2ccc(OCc3ccccc3)cc2)cc1 [HTS02873, 4-[4-(benzyloxy)phenyl]-5-({2-[(4-methylphenyl)sulfonyl]ethyl}sulfanyl)-2,4-dihydro-3H-1,2,4-triazol-3-one]	YES	> 100 µM			
O=C(c1cccnc1Oc1ccc(Cl)cc1)N1CCN(C2c3ccccc3-c3ccccc32)CC1 [HTS07938, [2-(4-chlorophenoxy)pyridin-3-yl]-[4-(9H-fluoren-9-yl)piperazin-1-yl],methanone]	YES	> 100 µM			
Cc1c(S(=O)(=O)N2CCN(C3c4ccccc4-c4ccccc43)CC2)sc2ccc(Cl)cc12 [HTS08762, 1-[(5-chloro-3-methyl-1-benzothiophen-2-yl)sulfonyl]-4-(9H-fluoren-9-yl)piperazine]	YES	> 100 µM			
Cc1nn(-c2ccccc2)c2nc(OCC(=O)c3ccc(Br)cc3)c(C#N)c(-c3cccnc3)c12 [HTS09079, 6-[2-(4-bromophenyl)-2-oxoethoxy]-3-methyl-1-phenyl-4-pyridin-3-,ylpyrazolo[4,5-e]pyridine-5-carbonitrile]	YES	> 100 µM			
Cc1ccc(S(=O)(=O)n2cc(C=C3C(=O)Nc4ccccc43)c3ccccc32)cc1 [SC-18, 3-[[1-(4-methylphenyl)sulfonylindol-3-yl]methylidene]-1H-indol-2-one]			30 µM	5 µM	inhibition at 30 µM (ATX [1]): 55.3%
O=C(Nc1c2c(nn1-c1ccc(F)cc1)C[S+]([O-])C2)c1ccc2ccccc2c1 (centres unmarked) [SC-24, N-[2-(4-fluorophenyl)-5-oxo-4,6-dihydrothieno[3,4-c]pyrazol-3-yl]naphthalene-2-carboxamide]			> 30 µM	4 µM	inhibition at 30 µM (ATX [1]): 18.2%
Cc1ccc(S(=O)(=O)N2CCN3C(=O)c4ccccc4C32c2ccccc2)cc1 (centres unmarked) [SC-26, 1-(4-methylphenyl)sulfonyl-9b-phenyl-2,3-dihydroimidazo[2,1-a]isoindol-5-one]			> 30 µM	> 5 µM	
Cc1ccc(-n2nc3c(c2NC(=O)c2ccc4ccccc4c2)C[S+]([O-])C3)cc1 (centres unmarked) [SC-27, N-[2-(4-methylphenyl)-5-oxo-4,6-dihydrothieno[3,4-c]pyrazol-3-yl]naphthalene-2-carboxamide]			> 30 µM	> 5 µM	
Cc1nc(-c2ccc(NS(=O)(=O)c3ccc4c5c(cccc35)CC4)cc2)cs1 [SC-30, N-[4-(2-methyl-1,3-thiazol-4-yl)phenyl]-1,2-dihydroacenaphthylene-5-sulfonamide]			> 30 µM	> 5 µM	
O=C(Cn1cnc2ccsc2c1=O)c1c(-c2ccccc2)[nH]c2ccccc12 [SC-34, 3-[2-oxo-2-(2-phenyl-1H-indol-3-yl)ethyl]thieno[3,2-d]pyrimidin-4-one]			> 30 µM	5 µM	inhibition at 30 µM (ATX [1]): 16%
CC12N[N+](c3ccccc3)=C(c3ccccc3)C1S(=O)(=O)c1ccccc12 (centres unmarked) [SC-36, 8b-methyl-2,3-diphenyl-1,3a-dihydro-[1]benzothiolo[3,2-c]pyrazol-2-ium 4,4-dioxide]				> 5 µM	IC50 (ATX [1]; read-out: in vitro IC50 (Sino hATX 2nM), Table S2, Sino hATX 2nM): > 30 µM
Cc1ncc(-c2ccc(NS(=O)(=O)c3ccc4c5c(cccc35)CC4)cc2)o1 [SC-37, N-[4-(2-methyl-1,3-oxazol-5-yl)phenyl]-1,2-dihydroacenaphthylene-5-sulfonamide]			> 30 µM	> 5 µM	
CN1C(=O)C(=NNC(=O)c2cc(-c3cccs3)nc3ccccc23)c2ccccc21 [SC-40, N-[(1-methyl-2-oxoindol-3-ylidene)amino]-2-thiophen-2-ylquinoline-4-carboxamide]			> 30 µM	> 5 µM	
O=C1c2ccccc2-c2ccc(C(=O)N3CCN(C(=O)c4cccs4)CC3)cc21 [SC-42, 2-[4-(thiophene-2-carbonyl)piperazine-1-carbonyl]fluoren-9-one]			> 30 µM	4.53 µM	
Cc1ccc(-n2nc3c(c2NC(=O)c2cccc4ccccc24)CS(=O)(=O)C3)cc1 [SC-43, N-[2-(4-methylphenyl)-5,5-dioxo-4,6-dihydrothieno[3,4-c]pyrazol-3-yl]naphthalene-1-carboxamide]			> 30 µM	> 5 µM	
O=C1NC(=O)C(=Cc2cn(Cc3ccc4ccccc4c3)c3ccccc23)S1 [SC-45, 5-[[1-(naphthalen-2-ylmethyl)indol-3-yl]methylidene]-1,3-thiazolidine-2,4-dione]			> 30 µM	> 5 µM	
Cc1ccccc1-n1nc2c(c1NC(=O)c1ccc3ccccc3c1)CS(=O)(=O)C2 [SC-47, N-[2-(2-methylphenyl)-5,5-dioxo-4,6-dihydrothieno[3,4-c]pyrazol-3-yl]naphthalene-2-carboxamide]			> 30 µM	3.4 µM	inhibition at 30 µM (ATX [1]): 38.6%
